Measured values: patent US20220117938A1, “COMBINATON THERAPY WITH A DON PRODRUG AND AN IMMUNE CHECKPOINT INHIBITOR” (DRACEN PHARMACEUTICALS, INC., priority 2019, published 2022)

System: CT26 tumors
Assay: CT26 model, Compound 1 5-day ON 2-day OFF with and without anti-PD-1 (Example 2B, similar experiment, Tables 2B-5/2B-6)
Format: in vivo, mice
Conditions: for Cures / Median Survival: 5-day ON 2-day OFF; for Mean Tumor Vol / TGI: Day 15; for BWC: mouse, in vivo
[1] = 0.15 mg/kg 5-day ON 2-day OFF x 4 cycles
[2] = 0.5 mg/kg 5-day ON 2-day OFF x 4 cycles
[3] = 1.4 mg/kg 5-day ON 2-day OFF x 4 cycles

For `CC(=O)N[C@@H](Cc1c[nH]c2ccccc12)C(=O)N[C@@H](CCC(=O)C=[N+]=[N-])C(=O)OC(C)C` [Compound 1, Isopropyl (S)-2-((S)-2-acetamido-3-(1H-indol-3-yl)propanamido)-6-diazo-5-oxohexanoate], which Cures (Compound 1 0.15 mg/kg) is on record?
Its Cures is 0%.

And the “Median Survival” value (Compound 1 0.15 mg/kg)?
Its value is 26 days.

What about the Cures (Compound 1 0.5 mg/kg) of the same molecule?
The Cures was 0%.

What about the “Median Survival” value (Compound 1 0.5 mg/kg) of the same molecule?
The value was 36 days.

What about the Cures (Compound 1 1.4 mg/kg) of the same molecule?
Its Cures is 0%.

And the “Median Survival” value (Compound 1 1.4 mg/kg)?
The value was 37 days.

What about the “Mean Tumor Vol” value [1] of the same molecule?
Its value is 188 ± 29 mm^3.

And the TGI [1]?
Its TGI is 76%.

And the “Mean Tumor Vol” value [2]?
The value was 150 ± 21 mm^3.

And the TGI [2]?
Its TGI is 88%.

What about the “Mean Tumor Vol” value [3] of the same molecule?
The value was 106 ± 16 mm^3.

What about the TGI [3] of the same molecule?
Its TGI is 91%.

What about the BWC (0.15 mg/kg) of the same molecule?
Its BWC is 7%.

And the BWC (0.5 mg/kg)?
The BWC was 1.4%.

What about the BWC (1.4 mg/kg) of the same molecule?
Its BWC is −11%.
